Assay results taken from patent US20230085307A1, “PYRIDAZINONE COMPOUND AND HERBICIDE” (NISSAN CHEMICAL CORPORATION, priority 2019, published 2023).

What was measured:
[1] = tested on: Chinese sprangletop; experiment: Test Example 3: herbicidal effect by foliage application, Wagner pot (Table 18, symbol D); assay type: in vivo, chinese sprangletop (Leptochloa chinensis); conditions: for herbicidal effect on D: Chinese sprangletop: amount of applied herbicide 320 g/ha
Outline: (§1)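 Plants were sown in alluvial soil held under 0.1–0.5 cm standing water and grown 14 days in a greenhouse at 25–30 °C. An emulsifiable formulation, water-diluted to the set dose, was then sprayed onto the foliage, and effects were scored three weeks later using previously defined criteria.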

[2] = tested on: chickweed; experiment: Test Example 4: herbicidal effect by soil treatment (Table 19, symbol P); assay type: in vivo, common chickweed (Stellaria media); conditions: for herbicidal effect, P: chickweed: amount of applied herbicide 320 g/ha
Outline: (§2)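 Three weeks of greenhouse growth at 25° C. to 30° C. followed a uniform surface spray of water-diluted emulsion at a predetermined herbicide amount. Seeds had been sown beforehand under about 1.5 cm of sterilized diluvial soil. Grading followed criteria set out in an earlier test.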

[3] = tested on: barnyard grass; experiment: Test Example 3: herbicidal effect by foliage application, Wagner pot (Table 18, symbol H); assay type: in vivo, barnyard grass (Echinochloa crus-galli); conditions: for herbicidal effect on H: barnyard grass: amount of applied herbicide 320 g/ha
Outline: as §1

[4] = tested on: windgrass; experiment: Test Example 4: herbicidal effect by soil treatment (Table 19, symbol L); assay type: in vivo, windgrass (Apera spica-venti); conditions: for herbicidal effect, L: windgrass: amount of applied herbicide 320 g/ha
Outline: as §2

[5] = tested on: Italian ryegrass; experiment: Test Example 4: herbicidal effect by soil treatment (Table 19, symbol K); assay type: in vivo, Italian ryegrass (Lolium multiflorum); conditions: for herbicidal effect, K: Italian ryegrass: amount of applied herbicide 320 g/ha
Outline: as §2

[6] = tested on: barnyard grass; experiment: Test Example 5: herbicidal effect by foliage application, plastic box (Table 20, symbol H); assay type: in vivo, barnyard grass (Echinochloa crus-galli); conditions: foliage application, 320 g/ha, 3 weeks after application
Outline: (§3)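 Plants sown in sterilized diluvial soil and grown 14 days in a greenhouse at 25° C to 30° C, then sprayed on the foliage with the compound's emulsion diluted in water to a predetermined herbicide amount. Injury to weeds and crops scored three weeks after application on a visual rating scale.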

[7] = tested on: blackgrass; experiment: Test Example 4: herbicidal effect by soil treatment (Table 19, symbol J); assay type: in vivo, blackgrass (Alopecurus myosuroides); conditions: for herbicidal effect, J: blackgrass: amount of applied herbicide 320 g/ha
Outline: as §2

[8] = tested on: rice flat sedge; experiment: Test Example 3: herbicidal effect by foliage application, Wagner pot (Table 18, symbol E); assay type: in vivo, rice flat sedge (Cyperus iria); conditions: for herbicidal effect on E: rice flat sedge: amount of applied herbicide 320 g/ha
Outline: as §1

[9] = tested on: blackgrass; experiment: Test Example 5: herbicidal effect by foliage application, plastic box (Table 20, symbol J); assay type: in vivo, blackgrass (Alopecurus myosuroides); conditions: foliage application, 320 g/ha, 3 weeks after application
Outline: as §3

[10] = tested on: velvetleaf; experiment: Test Example 5: herbicidal effect by foliage application, plastic box (Table 20, symbol M); assay type: in vivo, velvetleaf (Abutilon theophrasti); conditions: foliage application, 320 g/ha, 3 weeks after application
Outline: as §3

[11] = tested on: southern crabgrass; experiment: Test Example 5: herbicidal effect by foliage application, plastic box (Table 20, symbol F); assay type: in vivo, southern crabgrass (Digitaria ciliaris); conditions: foliage application, 320 g/ha, 3 weeks after application
Outline: as §3

[12] = tested on: green foxtail; experiment: Test Example 5: herbicidal effect by foliage application, plastic box (Table 20, symbol G); assay type: in vivo, green foxtail (Setaria viridis); conditions: foliage application, 320 g/ha, 3 weeks after application
Outline: as §3

[13] = tested on: persian speedwell; experiment: Test Example 4: herbicidal effect by soil treatment (Table 19, symbol R); assay type: in vivo, Persian speedwell (Veronica persica); conditions: for herbicidal effect, R: persian speedwell: amount of applied herbicide 320 g/ha
Outline: as §2

[14] = tested on: persian speedwell; experiment: Test Example 5: herbicidal effect by foliage application, plastic box (Table 20, symbol R); assay type: in vivo, Persian speedwell (Veronica persica); conditions: foliage application, 320 g/ha, 3 weeks after application
Outline: as §3

[15] = tested on: Italian ryegrass; experiment: Test Example 5: herbicidal effect by foliage application, plastic box (Table 20, symbol K); assay type: in vivo, Italian ryegrass (Lolium multiflorum); conditions: foliage application, 320 g/ha, 3 weeks after application
Outline: as §3

[16] = tested on: wild oat; experiment: Test Example 4: herbicidal effect by soil treatment (Table 19, symbol I); assay type: in vivo, wild oat (Avena fatua); conditions: for herbicidal effect, I: wild oat: amount of applied herbicide 320 g/ha
Outline: as §2

[17] = tested on: windgrass; experiment: Test Example 5: herbicidal effect by foliage application, plastic box (Table 20, symbol L); assay type: in vivo, windgrass (Apera spica-venti); conditions: foliage application, 320 g/ha, 3 weeks after application
Outline: as §3

[18] = tested on: wild oat; experiment: Test Example 5: herbicidal effect by foliage application, plastic box (Table 20, symbol I); assay type: in vivo, wild oat (Avena fatua); conditions: foliage application, 320 g/ha, 3 weeks after application
Outline: as §3

[19] = tested on: lambsquarters; experiment: Test Example 5: herbicidal effect by foliage application, plastic box (Table 20, symbol O); assay type: in vivo, lambsquarters (Chenopodium album); conditions: foliage application, 320 g/ha, 3 weeks after application
Outline: as §3

[20] = tested on: velvetleaf; experiment: Test Example 4: herbicidal effect by soil treatment (Table 19, symbol M); assay type: in vivo, velvetleaf (Abutilon theophrasti); conditions: amount of applied herbicide 320 g/ha
Outline: as §2

[21] = tested on: lambsquarters; experiment: Test Example 4: herbicidal effect by soil treatment (Table 19, symbol O); assay type: in vivo, lambsquarters (Chenopodium album); conditions: amount of applied herbicide 320 g/ha
Outline: as §2

[22] = tested on: southern crabgrass; experiment: Test Example 4: herbicidal effect by soil treatment (Table 19, symbol F); assay type: in vivo, southern crabgrass (Digitaria ciliaris); conditions: amount of applied herbicide 320 g/ha
Outline: as §2

[23] = tested on: barnyard grass; experiment: Test Example 4: herbicidal effect by soil treatment (Table 19, symbol H); assay type: in vivo, barnyard grass (Echinochloa crus-galli); conditions: amount of applied herbicide 320 g/ha
Outline: as §2

[24] = tested on: redroot pigweed; experiment: Test Example 4: herbicidal effect by soil treatment (Table 19, symbol N); assay type: in vivo, redroot pigweed (Amaranthus retroflexus); conditions: amount of applied herbicide 320 g/ha
Outline: as §2

[25] = tested on: green foxtail; experiment: Test Example 4: herbicidal effect by soil treatment (Table 19, symbol G); assay type: in vivo, green foxtail (Setaria viridis); conditions: amount of applied herbicide 320 g/ha
Outline: as §2

Row | SMILES | herbicidal effect on D: Chinese sprangletop [1] | herbicidal effect, M: velvetleaf [20] | herbicidal effect, P: chickweed [2] | herbicidal effect on H: barnyard grass [3] | herbicidal effect, L: windgrass [4] | herbicidal effect, K: Italian ryegrass [5] | herbicidal effect, O: lambsquarters [21] | herbicidal effect, J: blackgrass [7] | herbicidal effect on E: rice flat sedge [8] | herbicidal effect, F: southern crabgrass [22] | herbicidal effect, H: barnyard grass [23] | herbicidal effect, N: redroot pigweed [24] | herbicidal effect, R: persian speedwell [13] | herbicidal effect, G: green foxtail [25] | herbicidal effect, I: wild oat [16] | further results
1 | COc1nn(C)c(=O)c(-c2c(-c3cc4ccccc4s3)sc3ccccc23)c1O [1-196] |  |  |  |  |  |  |  |  |  |  |  |  |  |  |  | herbicidal effect on D (Chinese sprangletop), rating 0-5 ([1]; 320 g/ha): 0 (Herbicidal rate of 5% or less (almost no effect)); P: chickweed, herbicidal effect rating ([2]; AAH 320 g/ha): 5 (Herbicidal rate of 90% or more (almost completely withered)); herbicidal effect on H (barnyard grass), rating 0-5 ([3]; 320 g/ha): 3 (Herbicidal rate of 40% or more and less than 70%); L: windgrass, herbicidal effect rating ([4]; AAH 320 g/ha): 0 (Herbicidal rate of 5% or less (almost no effect)); K: Italian ryegrass, herbicidal effect rating ([5]; AAH 320 g/ha): 4 (Herbicidal rate of 70% or more and less than 90%); effect on barnyard grass (H) [6]: 0 (Herbicidal rate of 5% or less (almost no effect)); J: blackgrass, herbicidal effect rating ([7]; AAH 320 g/ha): 0 (Herbicidal rate of 5% or less (almost no effect)); herbicidal effect on E (rice flat sedge), rating 0-5 ([8]; 320 g/ha): 5 (Herbicidal rate of 90% or more (almost completely withered)); effect on blackgrass (J) [9]: 0 (Herbicidal rate of 5% or less (almost no effect)); effect on velvetleaf (M) [10]: 3 (Herbicidal rate of 40% or more and less than 70%); effect on southern crabgrass (F) [11]: 0 (Herbicidal rate of 5% or less (almost no effect)); effect on green foxtail (G) [12]: 0 (Herbicidal rate of 5% or less (almost no effect)); R: persian speedwell, herbicidal effect rating ([13]; AAH 320 g/ha): 5 (Herbicidal rate of 90% or more (almost completely withered)); effect on persian speedwell (R) [14]: 5 (Herbicidal rate of 90% or more (almost completely withered)); effect on Italian ryegrass (K) [15]: 3 (Herbicidal rate of 40% or more and less than 70%); I: wild oat, herbicidal effect rating ([16]; AAH 320 g/ha): 0 (Herbicidal rate of 5% or less (almost no effect)); effect on windgrass (L) [17]: 0 (Herbicidal rate of 5% or less (almost no effect)); effect on wild oat (I) [18]: 0 (Herbicidal rate of 5% or less (almost no effect)); effect on lambsquarters (O) [19]: 5 (Herbicidal rate of 90% or more (almost completely withered))
2 | Cc1nn(C)c(=O)c(-c2c(-c3ccc(C(F)(F)F)cc3F)sc3ccc(F)cc23)c1O [2-354] | 5 (Herbicidal rate of 90% or more (almost completely withered)) | 0 (Herbicidal rate of 5% or less (almost no effect)) | 1 (Herbicidal rate of 5% or more and less than 20%) | 5 (Herbicidal rate of 90% or more (almost completely withered)) | 0 (Herbicidal rate of 5% or less (almost no effect)) | 0 (Herbicidal rate of 5% or less (almost no effect)) | 3 (Herbicidal rate of 40% or more and less than 70%) | 0 (Herbicidal rate of 5% or less (almost no effect)) | 5 (Herbicidal rate of 90% or more (almost completely withered)) | 0 (Herbicidal rate of 5% or less (almost no effect)) | 0 (Herbicidal rate of 5% or less (almost no effect)) | 3 (Herbicidal rate of 40% or more and less than 70%) | 4 (Herbicidal rate of 70% or more and less than 90%) | 1 (Herbicidal rate of 5% or more and less than 20%) | 0 (Herbicidal rate of 5% or less (almost no effect)) | 
3 | COc1cccc(-c2sc3ccc(F)cc3c2-c2c(O)c(C)nn(C)c2=O)c1F [2-362] | 0 (Herbicidal rate of 5% or less (almost no effect)) | 0 (Herbicidal rate of 5% or less (almost no effect)) | 0 (Herbicidal rate of 5% or less (almost no effect)) | 3 (Herbicidal rate of 40% or more and less than 70%) | 0 (Herbicidal rate of 5% or less (almost no effect)) | 2 (Herbicidal rate of 20% or more and less than 40%) | 3 (Herbicidal rate of 40% or more and less than 70%) | 0 (Herbicidal rate of 5% or less (almost no effect)) | 3 (Herbicidal rate of 40% or more and less than 70%) | 0 (Herbicidal rate of 5% or less (almost no effect)) | 0 (Herbicidal rate of 5% or less (almost no effect)) | 1 (Herbicidal rate of 5% or more and less than 20%) | 0 (Herbicidal rate of 5% or less (almost no effect)) | 0 (Herbicidal rate of 5% or less (almost no effect)) | 0 (Herbicidal rate of 5% or less (almost no effect)) | 
4 | COc1ccc(-c2sc3ccc(F)cc3c2-c2c(O)c(C)nn(C)c2=O)c(F)c1 [2-364] | 4 (Herbicidal rate of 70% or more and less than 90%) | 0 (Herbicidal rate of 5% or less (almost no effect)) | 0 (Herbicidal rate of 5% or less (almost no effect)) | 4 (Herbicidal rate of 70% or more and less than 90%) | 0 (Herbicidal rate of 5% or less (almost no effect)) | 0 (Herbicidal rate of 5% or less (almost no effect)) | 4 (Herbicidal rate of 70% or more and less than 90%) | 0 (Herbicidal rate of 5% or less (almost no effect)) | 5 (Herbicidal rate of 90% or more (almost completely withered)) | 0 (Herbicidal rate of 5% or less (almost no effect)) | 0 (Herbicidal rate of 5% or less (almost no effect)) | 1 (Herbicidal rate of 5% or more and less than 20%) | 0 (Herbicidal rate of 5% or less (almost no effect)) | 0 (Herbicidal rate of 5% or less (almost no effect)) | 0 (Herbicidal rate of 5% or less (almost no effect)) | 
